Data from article PMC2527810, “[^18F]FDG and [^18F]FLT uptake in human breast cancer cells in relation to the effects of chemotherapy: an in vitro study” (British Journal of Cancer, 2008).

Key:
[1] = system: Thymidine kinase (TK) activity in MDA MB231 breast cancer cells; assay: TK enzyme activity (FLT phosphorylation) in lysates of drug-treated cells; format: cell-based, human; conditions: IC50 concentration; for TK activity compared with untreated cells (in words): 48 and 72 h, effects minor
Experimental: . Enzyme activity was also analysed in CEM cells and in the corresponding TK-1-deficient subtype to assess whether FLT phosphorylation only occurs in the presence of sufficient cytosolic TK-1.
Cell pellets were suspended in 50 mM Tris/1 mM EDTA (pH 7.4) and sonificated on ice. Lysates were spun down and supernatant diluted 1 : 8 in 50 mM Tris/1 mM EDTA (pH 7.4).
3′-deoxy-3′-[^18F]fluorothymidine was diluted with 50 mM Tris/1 mM EDTA (pH 7.4) and 1 : 1 mixed with 20 mM ATP, 10 mM MgCl2, resulting in an FLT concentration of about 60 MBq ml^−1 (6.32–18.89 pmol per sample). […] .
The assay was optimised for protein concentration and incubation times. Diluted cell lysates or purified TK-2 (kindly provided by A. Karlsson, Karolinska Institute, Stockholm, Sweden) were incubated with the FLT mixture for 15 min at 37°C and the reaction was stopped by heating the samples at 95°C for 5 min. Substrate (FLT) and product (FLT-phosphate) were separated by TLC and radioactivity was measured in a single-well gamma counter (Wallac1480 Wizard, Perkin Elmer Lifescience, MA, USA). Protein concentrations were measured in a Bio-Rad Bradford protein assay (Bio-Rad Laboratories, Hercules, CA, USA).

[2] = system: TK-1 protein levels of MDA MB231 cells; assay: TK-1 protein levels by Western blot; conditions: for increase in TK-1 levels compared with untreated cells: abstract, time not stated
[3] = system: MDA MB231 cells; assay: Cellular FLT uptake after drug incubation; format: cell-based, human; conditions: IC50 concentration
Experimental: (§1) Cells were plated in six identical 24-well plates at 75 000 cells per ml. […] Control cells were plated in a concentration of 45 000 cells per ml, 4 days before tracer uptake. Cell culture medium was replaced 4 h before adding PET tracers. For FDG plates, medium was replaced with medium without glucose (+IC50 drugs concentration), as glucose competes with FDG uptake. For FLT plates, medium was replaced with medium without L-glutamine (+IC50 drugs concentration). The presence of L-glutamine in the culture medium may reduce FLT uptake, as glutamine is a source of thymidine monophosphate competing with FLT uptake through the de novo pathway.
(§2) One MBq per well FDG or FLT was added to the cells and incubated for 60 min at 37°C. After removal of excess tracer, cellular tracer uptake was determined with an ECAT Exact HR+ PET scanner (Siemens/CTI, Knoxville, TN, USA). Images were analysed using CAPP software (version 7.2, CTI/Siemens, Knoxville, TN, USA). Regions of interest (ROI) were drawn manually in a plane with visible tracer uptake. Next, ROIs were copied to all other planes and total activity per well was calculated and plotted against exact number of cells. Tracer uptake was also determined in an identical plate using the single-well gamma counter. Tracer uptake was corrected for the number of cells.

[4] = system: MDA MB231 cells; assay: Cell cycle analysis after exposure to IC50 drug concentrations; format: cell-based, human; conditions: for cell cycle effect (in words): at IC50 concentrations
Experimental: For cell cycle analysis, cells were exposed to IC50 concentrations of the various drugs for 4, 24, 48 or 72 h, fixed in 70% ethanol (1 × 10^6 cells per ml) and stored at 4°C until analysis, as described previously ([Temmink et al, 2007]) according to a slightly modified protocol.

[5] = system: MDA MB231 cells; assay: Cellular FDG uptake after drug incubation; format: cell-based, human; conditions: IC50 concentration
Experimental: as §1, §2

[6] = system: MDA MB231 cells; assay: Cytotoxicity by sulforhodamine (SRB) assay; format: cell-based; conditions: Homo sapiens, MDA-MB-231, 72 h drug incubation, read-out: IC50 (50% reduction in growth)
Experimental: The human breast cancer cell line MDA MB231 (ATCC no. HTB-26) and CEM leukaemia cells (CEM wild type and TK-deficient CEM/TK-) were cultured in RPMI 1640 supplemented with 10% foetal bovine serum and 1% penicillin/streptomycin (P/S), at 5% CO2 in a humidified atmosphere at 37°C. Cell counting was performed with a Casy cell counter (Schärfe System GmbH, Reutlingen, Germany).
Cytotoxicity to 5-FU (Sigma Chemical Co., MO, St Louis, USA), doxorubicin (doxorubicin hydrochloride, Pfizer, Cappelle a/d IJssel, The Netherlands) and paclitaxel (Sigma Chemical Co.) was determined by sulforhodamine (SRB) assay. Briefly, cells were plated in 96-well plates and after 24 h, drugs were added at various concentrations, incubated for 72 h and the SRB assay was performed as described previously ([de Bruin et al, 2003]). The IC50 is the concentration resulting in 50% reduction in growth compared with untreated control cells.

[7] = 48 h incubation, IC50 concentration

Compound	Mean (±s.d.) change in TK-1 protein levels compared with untreated cells (set to 100%) ([2]; 4 h, IC50 concentration) [%]	Mean (±s.d.) change in TK-1 protein levels compared with untreated cells (set to 100%) ([2]; 24 h, IC50 concentration) [%]	Mean (±s.d.) change in TK-1 protein levels compared with untreated cells (set to 100%) ([2]; 48 h, IC50 concentration) [%]	Mean (±s.d.) change in TK-1 protein levels compared with untreated cells (set to 100%) ([2]; 72 h, IC50 concentration) [%]	increase in TK-1 levels compared with untreated cells [2]	increase in TK-1 levels ([2]; at 48 h, IC50 concentration)	Mean (±s.d.) change in FLT uptake compared with untreated cells (set to 100%) ([3]; 4 h) [%]	Mean (±s.d.) change in FLT uptake compared with untreated cells (set to 100%) ([3]; 24 h) [%]	Mean (±s.d.) change in FLT uptake compared with untreated cells (set to 100%) ([3]; 48 h) [%]	Mean (±s.d.) change in FLT uptake compared with untreated cells (set to 100%) ([3]; 72 h) [%]	increase in FLT uptake ([3]; 72 h) [%]	cell cycle effect (in words) [4]	Mean (±s.d.) change in FDG uptake compared with untreated cells (set to 100%) ([5]; 4 h) [%]	Mean (±s.d.) change in FDG uptake compared with untreated cells (set to 100%) ([5]; 24 h) [%]	Mean (±s.d.) change in FDG uptake compared with untreated cells (set to 100%) ([5]; 48 h) [%]	Mean (±s.d.) change in FDG uptake compared with untreated cells (set to 100%) ([5]; 72 h) [%]	IC50 [6] [nM]	TK activity compared with untreated cells (in words) [1]	further results
COc1cccc2c1C(=O)c1c(O)c3c(c(O)c1C2=O)C[C@@](O)(C(=O)CO)C[C@@H]3O[C@H]1C[C@H](N)[C@H](O)[C@H](C)O1 [doxorubicin]	64±6	130±78	177±71	473±348	> 300	two-fold	123±83	137±52	494±232	273±209	173	G2/M accumulation	57±35	124±59	133±45	171±0	200		increase in TK activity compared with untreated cells ([1]; after 24 h): more than three-fold; increase in FLT uptake ([3]; irrespective of incubation time): > 24%; decrease in G1 phase [4, 7]: 90%; decrease in S phase [4, 7]: 70%; accumulation in the G2/M phase ([4]; 48 h incubation, IC50 concentration, vs control cells): two-fold; increase in FDG uptake ([5]; 72 h): 71%; increase in FDG uptake ([5]; at 24, 48 and 72 h): > 24%
O=c1[nH]cc(F)c(=O)[nH]1 [5-FU, 5-fluorouracil]	163±1	122±38	184±53	443±58	> 300	two-fold	99±45	113±7	101±8	46±32		accumulation in the G1 phase	67±2	70±13	69±21	45±20	5000	increased TK activity	decrease in FLT uptake ([3]; 72 h): 54%; decrease in FLT uptake ([3]; 72 h, listed as 5-fluorouracil): approximately 50%; decrease in FDG uptake ([5]; 72 h, listed as 5-fluorouracil): approximately 50%
CC(=O)O[C@H]1C(=O)[C@@]2(C)[C@H]([C@H](OC(=O)c3ccccc3)[C@]3(O)C[C@H](OC(=O)[C@H](O)[C@@H](NC(=O)c4ccccc4)c4ccccc4)C(C)=C1C3(C)C)[C@]1(OC(C)=O)CO[C@@H]1C[C@@H]2O [paclitaxel]	103±6	62±4	54±16	52±32			108±2	112±54	118±14	166±18	66	G2/M accumulation	105±41	125±99	207±163	228±182	2.5	increased TK activity	decrease in TK-1 levels ([2]; at 48 h, IC50 concentration): > 40%; FLT uptake change (in words) ([3]; abstract): hardly changed; increase in G2/M phase ([4]; 4 h drug incubation, IC50 concentration): 1.2 fold; increase in FDG uptake ([5]; after 48 h (at 48 and 72 h)): > 100%
